Measured values from ChEMBL document CHEMBL5715954, “Silencing c-Myc translation as a therapeutic strategy through targeting PI3Kδ and CK1ε in hematological malignancies” (Blood, 2017).

Legend:
Design in all cases: scale not given: the % may be the effect or the level left
[1] = target: T1, Serine/threonine-protein kinase BRSK1 (Homo sapiens) (UniProt Q8TDC3); experiment: Inhibition of human BRSK1 assessed as enzyme activity at 1 uM using KKKVSRSGLYRSPSMPENLNRPR as substrate preincubated for 20 mins followed by [gamma-33P]-ATP addition and measured after 120 mins by radiometric Hot-SpotSM Kinase assay relative to control
T1 sequence (whole entry): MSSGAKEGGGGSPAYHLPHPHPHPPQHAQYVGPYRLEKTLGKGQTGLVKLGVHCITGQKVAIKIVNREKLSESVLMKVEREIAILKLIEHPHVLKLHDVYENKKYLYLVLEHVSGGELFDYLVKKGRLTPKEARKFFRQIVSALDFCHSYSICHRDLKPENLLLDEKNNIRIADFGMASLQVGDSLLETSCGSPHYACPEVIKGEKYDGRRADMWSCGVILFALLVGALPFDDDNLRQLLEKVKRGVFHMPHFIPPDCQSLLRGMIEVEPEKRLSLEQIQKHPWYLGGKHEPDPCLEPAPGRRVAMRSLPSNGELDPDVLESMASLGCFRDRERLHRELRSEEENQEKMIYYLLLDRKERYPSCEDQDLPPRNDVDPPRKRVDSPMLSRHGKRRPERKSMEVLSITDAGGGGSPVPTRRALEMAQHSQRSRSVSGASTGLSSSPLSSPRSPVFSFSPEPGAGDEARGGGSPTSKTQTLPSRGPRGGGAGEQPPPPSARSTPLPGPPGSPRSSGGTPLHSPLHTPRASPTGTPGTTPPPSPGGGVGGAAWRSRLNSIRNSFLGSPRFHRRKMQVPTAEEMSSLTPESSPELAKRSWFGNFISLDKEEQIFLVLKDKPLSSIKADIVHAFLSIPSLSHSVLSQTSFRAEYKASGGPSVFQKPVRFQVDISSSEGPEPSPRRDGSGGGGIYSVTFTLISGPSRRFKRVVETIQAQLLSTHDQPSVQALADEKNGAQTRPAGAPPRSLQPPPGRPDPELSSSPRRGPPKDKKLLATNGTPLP

[2] = target: Death-associated protein kinase 1 (Homo sapiens) (UniProt P53355); experiment: Inhibition of human DAPK1 assessed as enzyme activity at 1 uM using KKLNRTLSFAEPG as substrate preincubated for 20 mins followed by [gamma-33P]-ATP addition and measured after 120 mins by radiometric Hot-SpotSM Kinase assay relative to control
[3] = target: Mitogen-activated protein kinase kinase kinase 10 (Homo sapiens) (UniProt Q02779); experiment: Inhibition of human MLK2 assessed as enzyme activity at 1 uM using myelin basic protein as substrate preincubated for 20 mins followed by [gamma-33P]-ATP addition and measured after 120 mins by radiometric Hot-SpotSM Kinase assay relative to control
Mitogen-activated protein kinase kinase kinase 10 (Homo sapiens), sequence (Q02779 whole entry, looked up): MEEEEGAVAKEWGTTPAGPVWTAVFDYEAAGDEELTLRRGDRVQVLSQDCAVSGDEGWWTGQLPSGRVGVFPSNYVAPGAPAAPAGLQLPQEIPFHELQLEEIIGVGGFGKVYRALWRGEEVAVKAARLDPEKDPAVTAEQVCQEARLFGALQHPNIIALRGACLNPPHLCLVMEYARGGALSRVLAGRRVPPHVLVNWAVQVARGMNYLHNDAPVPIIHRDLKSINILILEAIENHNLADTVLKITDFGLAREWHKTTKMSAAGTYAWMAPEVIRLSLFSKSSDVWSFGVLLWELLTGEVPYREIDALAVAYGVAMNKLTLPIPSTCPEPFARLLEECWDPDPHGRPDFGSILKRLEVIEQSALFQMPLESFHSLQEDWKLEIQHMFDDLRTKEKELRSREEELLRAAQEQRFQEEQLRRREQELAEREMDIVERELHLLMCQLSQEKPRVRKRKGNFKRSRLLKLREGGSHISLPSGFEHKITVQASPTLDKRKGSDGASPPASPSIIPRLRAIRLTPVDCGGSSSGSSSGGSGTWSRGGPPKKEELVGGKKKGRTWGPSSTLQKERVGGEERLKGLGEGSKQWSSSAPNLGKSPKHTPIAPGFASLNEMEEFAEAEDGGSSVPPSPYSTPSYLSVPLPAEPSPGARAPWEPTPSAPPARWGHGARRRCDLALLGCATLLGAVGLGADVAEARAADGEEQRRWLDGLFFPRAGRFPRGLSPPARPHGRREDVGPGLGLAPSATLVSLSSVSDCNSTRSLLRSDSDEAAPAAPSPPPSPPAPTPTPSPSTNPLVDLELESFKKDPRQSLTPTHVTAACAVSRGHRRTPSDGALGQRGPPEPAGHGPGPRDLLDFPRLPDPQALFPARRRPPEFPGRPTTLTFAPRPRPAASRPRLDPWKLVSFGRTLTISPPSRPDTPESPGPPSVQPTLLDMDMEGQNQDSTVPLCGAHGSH

[4] = target: Ribosomal protein S6 kinase alpha-5 (Homo sapiens) (UniProt O75582); experiment: Inhibition of human MSK1 assessed as enzyme activity at 1 uM using GRPRTSSFAEG as substrate preincubated for 20 mins followed by [gamma-33P]-ATP addition and measured after 120 mins by radiometric Hot-SpotSM Kinase assay relative to control
Ribosomal protein S6 kinase alpha-5 (Homo sapiens), sequence (O75582 whole entry, looked up): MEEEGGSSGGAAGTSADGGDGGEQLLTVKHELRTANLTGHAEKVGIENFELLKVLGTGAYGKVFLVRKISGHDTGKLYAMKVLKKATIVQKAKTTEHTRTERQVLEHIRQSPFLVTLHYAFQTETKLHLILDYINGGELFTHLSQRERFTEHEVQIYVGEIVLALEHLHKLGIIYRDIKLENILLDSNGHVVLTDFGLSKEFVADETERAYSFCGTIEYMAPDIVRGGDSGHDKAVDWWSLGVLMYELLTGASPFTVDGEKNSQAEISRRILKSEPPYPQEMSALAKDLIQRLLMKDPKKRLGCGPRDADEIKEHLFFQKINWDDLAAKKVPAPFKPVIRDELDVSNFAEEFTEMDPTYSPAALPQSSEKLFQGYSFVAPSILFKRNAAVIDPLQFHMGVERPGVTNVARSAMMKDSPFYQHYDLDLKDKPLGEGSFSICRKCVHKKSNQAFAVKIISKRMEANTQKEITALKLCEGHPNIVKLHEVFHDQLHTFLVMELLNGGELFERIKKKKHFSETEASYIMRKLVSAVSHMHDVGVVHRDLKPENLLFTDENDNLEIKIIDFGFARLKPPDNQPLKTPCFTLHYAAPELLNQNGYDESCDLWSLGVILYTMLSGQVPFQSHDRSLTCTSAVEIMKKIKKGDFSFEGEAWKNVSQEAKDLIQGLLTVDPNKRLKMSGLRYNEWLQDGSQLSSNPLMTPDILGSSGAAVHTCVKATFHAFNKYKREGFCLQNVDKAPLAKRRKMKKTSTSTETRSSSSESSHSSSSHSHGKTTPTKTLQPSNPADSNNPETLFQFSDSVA

[5] = target: Platelet-derived growth factor receptor alpha (Homo sapiens) (UniProt P16234); experiment: Inhibition of human PDGFRa assessed as enzyme activity at 1 uM using poly[Glu:Tyr] (4:1) as substrate preincubated for 20 mins followed by [gamma-33P]-ATP addition and measured after 120 mins by radiometric Hot-SpotSM Kinase assay relative to control
Platelet-derived growth factor receptor alpha (Homo sapiens), sequence (P16234 whole entry): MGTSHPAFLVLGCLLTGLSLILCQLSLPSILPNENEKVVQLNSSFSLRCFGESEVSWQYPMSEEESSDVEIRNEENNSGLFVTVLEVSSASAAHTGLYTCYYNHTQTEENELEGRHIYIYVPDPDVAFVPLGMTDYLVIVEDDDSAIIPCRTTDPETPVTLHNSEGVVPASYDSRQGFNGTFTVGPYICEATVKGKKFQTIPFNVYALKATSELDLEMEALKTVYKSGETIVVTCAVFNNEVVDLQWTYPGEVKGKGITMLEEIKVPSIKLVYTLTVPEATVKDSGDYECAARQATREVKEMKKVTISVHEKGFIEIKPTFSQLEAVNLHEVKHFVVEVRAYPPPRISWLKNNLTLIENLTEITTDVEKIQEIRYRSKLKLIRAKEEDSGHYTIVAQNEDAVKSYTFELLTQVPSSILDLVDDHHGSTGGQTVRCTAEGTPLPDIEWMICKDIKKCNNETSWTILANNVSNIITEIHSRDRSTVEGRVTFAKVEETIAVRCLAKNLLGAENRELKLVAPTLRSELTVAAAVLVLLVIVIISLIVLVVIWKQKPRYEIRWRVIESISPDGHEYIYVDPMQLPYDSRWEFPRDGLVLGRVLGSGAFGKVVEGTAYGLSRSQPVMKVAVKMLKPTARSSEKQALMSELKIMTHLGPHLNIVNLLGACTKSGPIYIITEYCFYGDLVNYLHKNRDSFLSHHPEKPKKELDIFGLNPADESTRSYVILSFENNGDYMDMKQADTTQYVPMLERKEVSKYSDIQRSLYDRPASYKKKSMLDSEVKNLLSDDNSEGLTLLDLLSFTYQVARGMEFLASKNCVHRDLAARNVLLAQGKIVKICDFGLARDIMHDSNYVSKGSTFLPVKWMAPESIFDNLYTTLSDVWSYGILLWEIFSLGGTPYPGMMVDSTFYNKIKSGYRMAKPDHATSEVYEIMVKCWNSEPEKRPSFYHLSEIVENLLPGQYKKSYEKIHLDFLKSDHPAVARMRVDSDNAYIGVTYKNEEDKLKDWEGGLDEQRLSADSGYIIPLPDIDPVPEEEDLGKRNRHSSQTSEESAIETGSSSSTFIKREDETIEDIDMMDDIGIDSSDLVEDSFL

[6] = target: Serine/threonine-protein kinase WNK2 (Homo sapiens) (UniProt Q9Y3S1); experiment: Inhibition of human WNK2 assessed as enzyme activity at 1 uM using myelin basic protein as substrate preincubated for 20 mins followed by [gamma-33P]-ATP addition and measured after 120 mins by radiometric Hot-SpotSM Kinase assay relative to control
Serine/threonine-protein kinase WNK2 (Homo sapiens), sequence (Q9Y3S1 whole entry): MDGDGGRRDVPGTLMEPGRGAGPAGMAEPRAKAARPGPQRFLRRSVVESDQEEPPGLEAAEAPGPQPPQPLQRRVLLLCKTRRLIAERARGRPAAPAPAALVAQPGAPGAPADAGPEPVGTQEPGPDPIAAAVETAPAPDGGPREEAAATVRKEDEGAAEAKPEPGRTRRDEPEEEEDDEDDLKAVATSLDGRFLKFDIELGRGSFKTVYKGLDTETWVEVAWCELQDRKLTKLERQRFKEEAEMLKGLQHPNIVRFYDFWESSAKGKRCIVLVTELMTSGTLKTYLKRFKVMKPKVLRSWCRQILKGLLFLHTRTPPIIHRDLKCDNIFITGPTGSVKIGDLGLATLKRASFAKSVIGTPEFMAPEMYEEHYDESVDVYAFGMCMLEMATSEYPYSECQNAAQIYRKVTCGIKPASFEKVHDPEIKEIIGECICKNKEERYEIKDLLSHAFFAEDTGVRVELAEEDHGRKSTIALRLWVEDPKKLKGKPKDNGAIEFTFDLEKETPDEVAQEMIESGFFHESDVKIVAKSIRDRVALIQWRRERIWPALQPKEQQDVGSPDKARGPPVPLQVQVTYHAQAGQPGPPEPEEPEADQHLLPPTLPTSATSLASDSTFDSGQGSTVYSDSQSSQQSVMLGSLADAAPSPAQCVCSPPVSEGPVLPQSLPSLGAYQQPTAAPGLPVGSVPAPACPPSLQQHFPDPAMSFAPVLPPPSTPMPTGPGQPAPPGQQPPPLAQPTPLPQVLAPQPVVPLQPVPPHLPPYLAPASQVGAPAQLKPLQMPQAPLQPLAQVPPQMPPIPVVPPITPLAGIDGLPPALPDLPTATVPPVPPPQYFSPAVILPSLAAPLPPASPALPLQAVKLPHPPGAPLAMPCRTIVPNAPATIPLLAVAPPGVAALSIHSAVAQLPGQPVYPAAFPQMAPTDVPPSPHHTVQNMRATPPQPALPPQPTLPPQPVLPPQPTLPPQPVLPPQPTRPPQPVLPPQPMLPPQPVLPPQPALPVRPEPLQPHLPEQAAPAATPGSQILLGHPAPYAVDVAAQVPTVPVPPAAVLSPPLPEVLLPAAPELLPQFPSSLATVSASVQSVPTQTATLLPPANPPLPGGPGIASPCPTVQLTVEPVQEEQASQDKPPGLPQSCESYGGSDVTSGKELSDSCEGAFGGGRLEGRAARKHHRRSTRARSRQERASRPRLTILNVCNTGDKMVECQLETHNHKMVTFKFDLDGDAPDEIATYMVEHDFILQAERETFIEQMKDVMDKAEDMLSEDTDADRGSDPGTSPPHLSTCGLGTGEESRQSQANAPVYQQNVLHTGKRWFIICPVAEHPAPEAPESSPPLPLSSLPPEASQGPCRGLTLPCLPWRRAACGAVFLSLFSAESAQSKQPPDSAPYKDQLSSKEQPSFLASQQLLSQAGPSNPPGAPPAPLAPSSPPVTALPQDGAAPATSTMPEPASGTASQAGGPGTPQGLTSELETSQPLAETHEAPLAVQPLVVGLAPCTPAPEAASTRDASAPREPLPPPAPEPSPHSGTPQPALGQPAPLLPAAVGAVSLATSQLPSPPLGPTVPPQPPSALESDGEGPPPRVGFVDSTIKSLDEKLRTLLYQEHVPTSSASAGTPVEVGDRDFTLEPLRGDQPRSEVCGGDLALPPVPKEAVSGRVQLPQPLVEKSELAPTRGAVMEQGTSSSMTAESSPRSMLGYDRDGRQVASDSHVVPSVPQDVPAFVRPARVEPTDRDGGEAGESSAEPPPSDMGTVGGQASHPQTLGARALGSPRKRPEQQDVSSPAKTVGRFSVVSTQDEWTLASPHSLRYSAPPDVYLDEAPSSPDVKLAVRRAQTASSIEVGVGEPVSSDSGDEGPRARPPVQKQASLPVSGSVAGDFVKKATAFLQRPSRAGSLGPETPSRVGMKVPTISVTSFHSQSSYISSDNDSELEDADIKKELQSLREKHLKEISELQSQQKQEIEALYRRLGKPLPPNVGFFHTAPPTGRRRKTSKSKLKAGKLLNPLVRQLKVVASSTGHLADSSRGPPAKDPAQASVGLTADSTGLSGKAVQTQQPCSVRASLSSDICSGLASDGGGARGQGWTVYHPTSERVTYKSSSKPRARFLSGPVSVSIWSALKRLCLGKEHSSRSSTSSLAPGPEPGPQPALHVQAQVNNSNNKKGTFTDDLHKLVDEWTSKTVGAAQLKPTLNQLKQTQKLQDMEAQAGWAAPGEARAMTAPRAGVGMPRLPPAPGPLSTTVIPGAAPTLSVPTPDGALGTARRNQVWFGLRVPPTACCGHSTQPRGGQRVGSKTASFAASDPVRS

[7] = target: T2, Mitogen-activated protein kinase kinase kinase 19 (Homo sapiens) (UniProt Q56UN5); experiment: Inhibition of human YSK4/MAP3K19 assessed as enzyme activity at 1 uM using myelin basic protein as substrate preincubated for 20 mins followed by [gamma-33P]-ATP addition and measured after 120 mins by radiometric Hot-SpotSM Kinase assay relative to control
T2 sequence (whole entry): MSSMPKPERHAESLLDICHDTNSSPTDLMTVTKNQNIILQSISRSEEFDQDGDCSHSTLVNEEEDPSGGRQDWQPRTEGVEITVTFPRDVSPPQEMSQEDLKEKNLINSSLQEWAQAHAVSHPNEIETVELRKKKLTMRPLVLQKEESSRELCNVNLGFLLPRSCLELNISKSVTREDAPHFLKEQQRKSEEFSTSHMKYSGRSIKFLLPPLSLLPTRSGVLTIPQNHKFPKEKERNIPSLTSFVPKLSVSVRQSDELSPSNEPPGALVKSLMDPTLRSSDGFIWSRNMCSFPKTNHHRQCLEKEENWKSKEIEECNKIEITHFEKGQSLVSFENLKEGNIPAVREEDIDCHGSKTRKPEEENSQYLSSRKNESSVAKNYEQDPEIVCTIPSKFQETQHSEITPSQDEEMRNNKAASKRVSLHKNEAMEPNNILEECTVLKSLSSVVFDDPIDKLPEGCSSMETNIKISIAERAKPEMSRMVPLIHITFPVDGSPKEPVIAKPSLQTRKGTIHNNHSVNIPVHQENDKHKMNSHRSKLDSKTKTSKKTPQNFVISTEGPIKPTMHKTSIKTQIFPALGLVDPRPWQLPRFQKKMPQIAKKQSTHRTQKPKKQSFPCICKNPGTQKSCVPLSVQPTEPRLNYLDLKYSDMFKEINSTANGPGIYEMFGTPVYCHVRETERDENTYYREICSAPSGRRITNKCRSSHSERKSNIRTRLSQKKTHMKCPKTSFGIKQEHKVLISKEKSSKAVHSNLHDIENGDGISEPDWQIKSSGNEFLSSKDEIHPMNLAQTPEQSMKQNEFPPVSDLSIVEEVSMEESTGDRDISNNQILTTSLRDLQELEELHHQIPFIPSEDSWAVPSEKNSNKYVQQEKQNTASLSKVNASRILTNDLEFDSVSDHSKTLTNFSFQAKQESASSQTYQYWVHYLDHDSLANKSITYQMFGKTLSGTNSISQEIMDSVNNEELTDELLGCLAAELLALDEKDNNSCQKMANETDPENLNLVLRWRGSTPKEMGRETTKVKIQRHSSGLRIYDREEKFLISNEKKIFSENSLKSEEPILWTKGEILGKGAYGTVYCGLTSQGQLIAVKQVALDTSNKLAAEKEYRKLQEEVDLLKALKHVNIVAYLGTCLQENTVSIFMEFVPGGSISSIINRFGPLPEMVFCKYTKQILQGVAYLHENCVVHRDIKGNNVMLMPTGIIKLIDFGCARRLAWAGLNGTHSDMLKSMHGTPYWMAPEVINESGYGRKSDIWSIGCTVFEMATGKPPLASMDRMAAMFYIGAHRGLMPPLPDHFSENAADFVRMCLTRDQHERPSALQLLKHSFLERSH

CC[C@H](Nc1ncnc2[nH]cnc12)c1nc2cccc(F)c2c(=O)n1-c1ccccc1 was tested, and the Activity [1] was 89.1%, the Activity [2] was 95% and the Activity [3] was 112%. It also gave an Activity [4] of 94.6%, an Activity [5] of 93.8% and an Activity [6] of 92.3%. The Activity [7] was 90.5%.
C[C@H](Nc1ncnc2nc[nH]c12)c1cc2cccc(Cl)c2c(=O)n1-c1ccccc1 was tested, and the Activity [1] was 92.5%, the Activity [2] was 97% and the Activity [3] was 103%. The Activity [4] was 96.3%, the Activity [5] was 90.1% and the Activity [6] was 90.5%. The Activity [7] was 91.6%.
CC(C)Oc1ccc(-c2nn([C@@H](C)c3oc4ccc(F)cc4c(=O)c3-c3cccc(F)c3)c3ncnc(N)c23)cc1F [UMBRALISIB] showed an Activity [1] of 87.9%, an Activity [2] of 99.7% and an Activity [3] of 108%. It also gave an Activity [4] of 96.8%, an Activity [5] of 100% and an Activity [6] of 82.2%. For the same compound, the Activity [7] was 92.4%.
